{"source": "patent US10351613B2", "about": "“Polypeptide for inhibition of tumor” (G-Bio Pharma Tech Co., Ltd., priority 2015, dated 2019)", "key": {"[1]": {"system": "BxPC-3 (pancreatic cancer)", "assay": "MTT in vitro inhibition of BxPC-3", "assay_type": "cell-based", "experimental": "(§1) Inhibition of cell growth was detected by a MTT method, which is based on the principle that succinate dehydrogenase in the mitochondria of the live cells could reduce the exogenous MTT (3-(4,5-dimethyl-2-thiazolyl)-2,5-diphenyl-tetrazolium bromide) to a […] Formazan which is a blue-violet crystal, and precipitates in the cells, while the death cells could not reduce MTT. DMSO could dissolve Formazan in the cells. Absorbance value of the solution was determined at 490/570 nm by microplate reader, which could indirectly indicate the amount of the live cells. The amount of the crystal from MTT is proportional to the amount of the cells within a certain range of cell number. The supernate from the HUVEC or tumor cells in exponential phase was removed and the cells were washed by PBS once. 1 ml 0.25% trypsin (4° C.) was added for digestion at 37° C. for 2 min. Then the supernate was added for neutralization and the cells were dispersed to form a suspension and the suspension was centrifuged at 1000 rpm for 3 min. The supernate was removed and 5 ml culture mediums were added for resuspension. Cells were inoculated in a 48-well plate by 500 ul/well at the concentration of 3×10^4/ml and then incubated under 5% CO2, 37° C. for 24 hours. The supernate was removed and a culture medium containing polypeptide (Zn^2+ in the culture medium was present at the concentration of 17.39 μmol/L) was added for further incubation for 48 hours. Supernate in each well was carefully removed. The well was gently washed by PBS once in an amount of 450 μl/well. 450 μl MTT culture mediums were added into each well for further cultivation for 4 hours. The supernate was carefully discarded. DMSO was added in an amount of 450 μl/well and then the plate was placed in a shaking bed for oscillation for 10 min in dark. 150 μl supernates were transferred to a 96-well ELISA plate and absorbance value of each well was detected at 490 nm and 570 nm by the microplate reader.\n(§2) P2 (SEQ ID NO:2) and P2T2S18 (SEQ ID NO:6) were tested for their in vitro inhibition on SMMC7221, SPC-A-1, A549, LS174T, BEL7402, CK-MES-1 and BxPC-3 at a polypeptide concentration of 1 mg/ml according to the method described in Example 3. Results are shown in FIG. 9 and the following Table. […] All IC50 concentrations for P2T2S18 are less than 1/10 IC50 concentration of P2."}, "tumor cell HepG2": {"system": "tumor cell HepG2", "assay_type": "cell-based", "experimental": "as §1"}, "SMMC7721 (Liver cancer)": {"system": "SMMC7721 (Liver cancer)", "assay": "MTT in vitro inhibition of SMMC7721", "assay_type": "cell-based", "experimental": "as §1, §2"}, "[2]": {"system": "Human Umbilical Vein Endothelial Cell (HUVEC)", "assay_type": "cell-based", "experimental": "20 cm umbilical cord adjacent to fetus was taken, cleaned by washing, ligated at both ends, placed into 150 ml preservation solutions for umbilical cord, and stored in a 4° C. refrigerator for digestion for 6 hours. The umbilical cord was inspected to remove the damaged portion. The umbilical vein was thoroughly cleaned by washing and then 10 ml collagenase solution was injected. Then the umbilical vein was transferred to a 37° C. incubator for digestion for 15 minutes. The umbilical cord was removed and the digested solution was recovered. The digested solution was washed by PBS and centrifuged. After centrifugation, the cells were culture by re-suspension.\nas §1"}, "A549 (lung carcinoma)": {"system": "A549 (lung carcinoma)", "assay": "MTT in vitro inhibition of A549", "assay_type": "cell-based", "experimental": "as §1, §2"}, "BEL7402 (Liver cancer)": {"system": "BEL7402 (Liver cancer)", "assay": "MTT in vitro inhibition of BEL7402", "assay_type": "cell-based", "experimental": "as §1, §2"}, "SPC-A-1 (lung carcinoma)": {"system": "SPC-A-1 (lung carcinoma)", "assay_type": "cell-based", "experimental": "as §1, §2"}, "LS174T (Colon cancer)": {"system": "LS174T (Colon cancer)", "assay_type": "cell-based", "experimental": "as §1, §2"}, "[3]": {"system": "lung cancer cell line SPC-A-1", "assay": "In vitro death of SPC-A-1 tumor cell observed under optical microscope", "assay_type": "cell-based", "conditions": "SPC-A-1, 2.5 mg/ml", "experimental": "Polypeptides were tested for their effect in inducing cell death of lung cancer cell line SPC-A-1 at a polypeptide concentration of 2.5 mg/ml according to the method described in Example 3. Cells were observed under an optical microscope over 24 hours and photos were taken. P2 exerts its function 4 hours after being added into the culture medium. […] On the contrary, they extremely swelled. 4 hours later cells further swelled and began to disintegrate at 8 hours. […] The manner of P2T2S18 caused cell death is very surprising. Currently, it is unable to determine what manner this kind of cell death belongs to. No report is found in papers as well. However, this mode of cell death is obviously different from that caused by P2. Together with the results in Example 7, it can conclude that P2T2S18 not only has a biological activity obviously higher than P2, but also has a manner causing cell death obviously different from that of P2."}, "[4]": {"system": "Human liver cancer BEL7404 tumor model", "assay_type": "in vivo", "experimental": "In vitro cultured tumor cells in exponential phase and in good state were formulated to a 100 μl cell suspension containing 5×10^6 tumor cells. The suspension was subcutaneously inoculated to nude mice. Well-grown solid tumors were obtained 15 days later and cut into uniform pieces of about 3 mm under sterile condition. Each nude mouse was inoculated by one piece through a trocar. Mice were re-grouped according the tumor size 10-14 days after inoculation and animals having too large and too small tumor were excluded from the test. The average tumor volume for each group was basically identical. Test drugs were administered to each group according to the experimental protocol. The major axis (a) and minor axis (b) of the tumor were measured twice a week. Animals were sacrificed at the end of the test. The tumor was taken out, weighed and photos were taken. Tumor volume (TV)=½×a×b^2; Relative tumor volume (RTV)=Vt/Vo, wherein Vo is the tumor volume measured before grouping (one day before administration of the test drug), and Vt is the tumor volume measured at each time. Tumor inhibition rate (%)=(1−T/C)×100%, wherein T is the average tumor volume of the treatment group and C is the average tumor volume of the negative control group.\nThe amino acid sequence of recombination endostatin (“endostatin”) was set forth in SEQ ID NO: 1, and the amino acid sequence of the marketed drug Endostar (“endostar”) was set forth in SEQ ID NO: 10. Human liver cancer BEL7404 tumor model was constructed according to the method described in Example 10. The test contained 6 groups, with 6 animals in each group, except for the negative control group which contained 9 animals. The molar dose of the polypeptides was basically equal to the molar dose of endostatin. The results are shown in FIGS. 11a and 11b and the following Table."}, "[5]": {"system": "CK-MES-1 (lung squamous cell carcinoma)", "assay": "MTT in vitro inhibition of CK-MES-1", "assay_type": "cell-based", "experimental": "as §1, §2"}}, "note": "Residues, ends and D or L forms follow the SMILES beside them.", "data": [{"molecule": "CC[C@H](C)[C@H](NC(=O)CNC(=O)[C@H](CCCNC(=N)N)NC(=O)[C@H](CCSC)NC(=O)CNC(=O)CNC(=O)[C@H](CO)NC(=O)[C@H](CC(C)C)NC(=O)[C@H](CO)NC(=O)[C@H](CO)NC(=O)[C@H](CC(N)=O)NC(=O)[C@H](CC(C)C)NC(=O)[C@H](C)NC(=O)[C@@H](NC(=O)[C@H](CC(C)C)NC(=O)[C@H](Cc1c[nH]cn1)NC(=O)[C@H](CC(C)C)NC(=O)[C@@H](NC(=O)[C@@H]1CCCN1C(=O)[C@H](CCC(N)=O)NC(=O)[C@H](Cc1ccccc1)NC(=O)[C@H](CC(=O)O)NC(=O)[C@H](CCCNC(=N)N)NC(=O)[C@H](Cc1c[nH]cn1)NC(=O)[C@@H](NC(=O)[C@H](Cc1c[nH]cn1)NC(C)=O)[C@@H](C)O)C(C)C)C(C)C)C(=O)N[C@@H](CCCNC(=N)N)C(=O)NCC(=O)N[C@@H](C)C(=O)N[C@@H](CC(=O)O)C(N)=O", "note": "[Polypeptide P2T2S18] (Ac-HTHRDFQPVLHLVALNSSLSGGMRGIRGAD-NH2)", "values": [{"measurement": "IC50", "setting": "[1]; BxPC-3", "result": 78.1, "unit": "µg/mL"}, {"measurement": "Cell Survival (%) at a polypeptide concentration of 1 mg/ml", "setting": "[1]; BxPC-3, 1 mg/ml", "result": 3, "unit": "%"}, {"measurement": "IC50 (ug/ml) HepG2", "setting": "tumor cell HepG2", "result": 76.9, "unit": "µg/mL"}, {"measurement": "Cell Survival (%), 1 mg/ml of polypeptide, HepG2", "setting": "tumor cell HepG2; 1", "result": 4, "unit": "%"}, {"measurement": "IC50", "setting": "SMMC7721 (Liver cancer); SMMC7721", "result": 76.9, "unit": "µg/mL"}, {"measurement": "Cell Survival (%) at a polypeptide concentration of 1 mg/ml", "setting": "SMMC7721 (Liver cancer); SMMC7721, 1 mg/ml", "result": 9, "unit": "%"}, {"measurement": "IC50 (ug/ml) HUVEC", "setting": "[2]", "result": 66.7, "unit": "µg/mL"}, {"measurement": "Cell Survival (%), 1 mg/ml of polypeptide, HUVEC", "setting": "[2]; 1 mg/ml", "result": 2, "unit": "%"}, {"measurement": "Cell Survival (%) at a polypeptide concentration of 120 μM", "setting": "[2]; 6 h, 120", "result": 2, "unit": "%"}, {"measurement": "reduction of IC50 concentration as compared to that of P2", "setting": "[2]; HUVEC and HepG2", "result": "about 10 folds"}, {"measurement": "IC50", "setting": "A549 (lung carcinoma); A549", "result": 72.5, "unit": "µg/mL"}, {"measurement": "Cell Survival (%) at a polypeptide concentration of 1 mg/ml", "setting": "A549 (lung carcinoma); A549, 1 mg/ml", "result": 18, "unit": "%"}, {"measurement": "IC50", "setting": "BEL7402 (Liver cancer); BEL7402", "result": 64.9, "unit": "µg/mL"}, {"measurement": "Cell Survival (%) at a polypeptide concentration of 1 mg/ml", "setting": "BEL7402 (Liver cancer); BEL7402, 1 mg/ml", "result": 4, "unit": "%"}, {"measurement": "IC50", "setting": "SPC-A-1 (lung carcinoma); SPC-A-1", "result": 80.6, "unit": "µg/mL"}, {"measurement": "Cell Survival (%) at a polypeptide concentration of 1 mg/ml", "setting": "SPC-A-1 (lung carcinoma); SPC-A-1, 1 mg/ml", "result": 16, "unit": "%"}, {"measurement": "IC50 concentration as fraction of IC50 concentration of P2", "setting": "SPC-A-1 (lung carcinoma); all seven tumor cell lines of Example 10", "result": "less than 1/10"}, {"measurement": "IC50", "setting": "LS174T (Colon cancer)", "result": 84.7, "unit": "µg/mL"}, {"measurement": "Cell Survival (%) at a polypeptide concentration of 1 mg/ml", "setting": "LS174T (Colon cancer); 1 mg/ml", "result": 1, "unit": "%"}, {"measurement": "time after being added into the culture medium at which the polypeptide acts on the cells", "setting": "[3]", "result": 2, "unit": "h"}, {"measurement": "state of cells at 24 hours", "setting": "[3]; 24 hours", "result": "only cell debrises left"}, {"measurement": "manner of induced cell death", "setting": "[3]; optical microscope", "result": "cells did not shrink. On the contrary, they extremely swelled"}, {"measurement": "Tumor inhibitor rate (%)", "setting": "[4]; BEL7404, day 21, polypeptides 15 mg/kg sc 2 times per day 21 days, endostatin/endostar 50 mg/kg sc, CTX 30 mg/kg ip 7 days", "result": 76.7, "unit": "%"}, {"measurement": "toxic reaction", "setting": "[4]; BEL7404 model, same regimens", "result": "did not produce toxic reaction"}, {"measurement": "IC50", "setting": "[5]; CK-MES-1", "result": 66.7, "unit": "µg/mL"}, {"measurement": "Cell Survival (%) at a polypeptide concentration of 1 mg/ml", "setting": "[5]; CK-MES-1, 1 mg/ml", "result": 7, "unit": "%"}]}]}
